Data as given in patent US6225306A, “Biphenyl derivatives and drug composition” (Wakamoto Pharmaceutical Co., Ltd., priority 1997, dated 2001).

Legend:
Normal Conscious Rat [1] = assay: Aquaretic Effects in Normal Conscious Rat (urine volume); assay type: in vivo, rat (Sprague-Dawley, male)
Procedure: Aquaretic Effects in Normal Conscious Rat
(§1) Studies were performed with Sprague-Dawley male SPF rats (body weight: 240 to 320 g; 8-week-old). In this experiment, each group consisted of not less than 4 animals and rats were fasted over 16 to 20 hours. The animals were acclimatized in metabolic cages for one hour, then each compound to be tested was dissolved in 100% N,N-dimethylformamide or suspended in 5% gum arabic solution and administered to these animals intravenously (iv.) in a dose of 3 mg/kg or orally (p.o.) in a dose of 30 mg/kg. Immediately after the test compound or vehicle were orally administered, saline (25 ml/kg) was given orally. Spontaneous voided urines were collected for 4 hours after the administration of the compound and the amount of the urine were determined. In this case, the control group consisted of animals to which only 5% gum arabic was orally administered.
In addition, known compounds of Comparative Examples 2 and Comparative Examples 3 and 4 represented by the following formulas were used as control compounds.

Normal Conscious Rat [2] = assay: Urinary electrolytes and urinary osmotic pressure in conscious rat; assay type: in vivo, rat (Sprague-Dawley, male); settings: 0-2 hours, relation to urine volume
Procedure: as §1
Separately, the cumulative urine in each animal was collected for 2 hours after the administration of the compound, and analyze the amounts of sodium and potassium as electrolytes present in the urine (ion-selective electrode method), the amount of chlorine (coulometric titration) and urinary osmotic pressure (cryoscopic method). The results thus observed for typical compounds of the present invention are plotted on the accompanying drawings (FIGS. 1, 2, 3 and 4). […]. In this test, each compound tested was used in the following dose. […]

SMILES: NS(=O)(=O)c1cc(C(=O)O)c(NCc2ccco2)cc1Cl [Comp. Ex. 3, Furosemide, reference compound]
- Amount of Urine Volume (Normal Conscious Rat [1]; 3 mg/kg, i.v.): 27.3 ml/kg/0-4 hr.
- Amount of Urine Volume (Normal Conscious Rat [1]; 30 mg/kg, p.o.): 59.9 ml/kg/0-4 hr.
- urinary osmotic pressure (Normal Conscious Rat [2]; FIG. 4): increased approximately in proportion to the increase in the amount of the urine
- amount of electrolytes excreted in the urine (Normal Conscious Rat [2]; FIGS. 1-3): increased approximately in proportion to the increase in the amount of the urine
